Reference: BindingDB's records for doi:10.1016/j.ejmech.2013.01.009 (Fudan University, 2013)

Molecular target: Signal transducer and activator of transcription 3 (Homo sapiens, UniProt P40763)
Experiment: Inhibition of STAT3 in IL-6-stimulated human HepG2 cells treated for 1 hr prior to IL-6 challenge measured after 5.5 hrs by luciferase reporter gene assay

Sequence of Signal transducer and activator of transcription 3 (P40763 whole entry): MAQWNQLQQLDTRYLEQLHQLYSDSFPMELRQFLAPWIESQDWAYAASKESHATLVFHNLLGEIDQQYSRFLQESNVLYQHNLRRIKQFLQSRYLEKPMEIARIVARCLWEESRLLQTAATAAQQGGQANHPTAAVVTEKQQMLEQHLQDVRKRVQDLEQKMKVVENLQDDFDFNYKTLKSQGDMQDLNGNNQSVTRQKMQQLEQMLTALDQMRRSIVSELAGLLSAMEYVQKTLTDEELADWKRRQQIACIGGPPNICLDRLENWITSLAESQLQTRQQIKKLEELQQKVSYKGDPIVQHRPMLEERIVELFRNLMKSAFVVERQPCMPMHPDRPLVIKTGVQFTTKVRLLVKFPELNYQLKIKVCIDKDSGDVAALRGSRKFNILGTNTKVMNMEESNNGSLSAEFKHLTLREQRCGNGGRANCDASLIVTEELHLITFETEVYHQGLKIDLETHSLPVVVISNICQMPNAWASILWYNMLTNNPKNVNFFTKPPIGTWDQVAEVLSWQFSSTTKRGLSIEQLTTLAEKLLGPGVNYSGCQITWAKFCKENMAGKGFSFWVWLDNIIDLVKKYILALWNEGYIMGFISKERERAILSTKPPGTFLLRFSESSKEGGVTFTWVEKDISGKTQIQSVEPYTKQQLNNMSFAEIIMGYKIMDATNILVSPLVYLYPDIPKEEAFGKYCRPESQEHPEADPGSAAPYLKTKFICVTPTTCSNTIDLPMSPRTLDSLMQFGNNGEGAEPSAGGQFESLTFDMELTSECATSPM

CCC(Sc1nc2ccc(NC(=O)c3ccc(OC)cc3)cc2s1)C(=O)Nc1ccc(Br)cc1 (stereo unspecified)
IC50: 3.57 µM
